Publication PMC5372569, “A New Oleanolic Acid Derivative against CCl4-Induced Hepatic Fibrosis in Rats” (International Journal of Molecular Sciences, 2017)
Values joined by “and” are separate entries in the source; they are usually repeats but may differ in a detail not shown here. Identical values can stand only once.

What was measured:
TGF-β1 = test: Immunohistochemical staining of TGF-β1 in liver tissue, CCl4-induced liver fibrosis; assay type: in vivo; conditions: nine weeks, CCl4 rats
Description: (§1) After a two-week acclimation period, 52 rats were randomly divided into five groups (each group approximately consisted of ten rats). (1) Normal group: rats were fed with regular diet and distilled water and were injected intraperitoneally with olive oil (2 mL/kg body weight per day, i.p. twice per week) for nine weeks; (2) Model group: rats were feeding with the same quantity as the normal group and were injected with 40% CCl4/olive oil (2 mL/kg body weight, twice per week) for nine weeks to induce liver fibrosis; (3) Low-dose group: rats were fed with the same quantity as the normal group and were administered intraperitoneal injections with 40% CCl4/olive oil (2 mL/kg body weight, twice per week) and with a low dose (14 mg/kg body weight, once per day) Oxy-Di-OA treatment for nine weeks; (4) High-dose group: rats were fed with the same quantity as the normal group and were treated with 40% CCl4/olive oil (2 mL/kg body weight twice per week) and with a high dose (28 mg/kg body weight, once per day) Oxy-Di-OA treatment for nine weeks; (5) Positive control group: rats were fed with the same quantity as the normal group and were administered 40% CCl4/olive oil (2 mL/kg body weight, twice per week) and with bifendate (10.5 mg/kg body weight, once per day) for nine weeks.
Immunostaining was conducted as paraffin-embedded liver tissue sections of 5 µm thickness to determine the expression and distribution of TGF-β1 in the liver tissue of rats. Tissues were treated with 3% H2O2 in distilled water for 10 min to block endogenous peroxidase activity followed by another wash, and then blocked with 5% BSA blocking buffer for 20 min. Then, after endogenous peroxidase blockage, the sections were incubated with TGF-β1 primary antibody (1:50 dilution) at 4 °C overnight. The next day, they were washed three times with PBS (phosphate-buffered saline) and then incubated with HRP-labelled goat-anti-rabbit secondary antibodies at 37 °C for 30 min. […] The expression of TGF-β1 in liver tissues was analyzed under a light microscope (Olympus, Tokyo, Japan).

[1] = system: CCl4-induced liver fibrosis in rats; test: Liver and spleen indices in CCl4-induced liver fibrosis; assay type: in vivo; conditions: mean ± SD
Description: as §1
(§2) At 48 h after the final injection of CCl4, all rats were anaesthetized with chloral hydrate, and the blood samples were collected from the aorta abdominalis. The serum samples were obtained by centrifugation at 3000 rpm for 15 min to obtain the supernatant and were kept frozen at −80 °C until biochemical analysis. Livers and spleens were immediately removed, rinsed in ice-cold saline, and weighed. The data were used for calculating liver and spleen indices. Then a portion of each liver was fixed in 4% buffered formaldehyde, embedded in paraffin blocks, and stained with hematoxylin-eosin (H&E) for histological and biochemical analyses. The rest of the tissues were stored at −80 °C until required.
We used the percentage of the body weight to represent relative weights of the liver and spleen, respectively. The indices of liver and spleen were expressed as Wl/Wm and Ws/Wm, respectively. The Wl and Ws represented the average liver and spleen weight of each group, respectively, and Wm was the average rat body weight of each group.

[2] = system: CCl4-induced liver fibrosis in rats; test: Histological assessment (H&E) of livers in CCl4-induced liver fibrosis; assay type: in vivo; conditions: nine weeks
Description: as §1, §2

[3] = system: CCl4-induced liver fibrosis in rats; test: Serum ALT and AST in CCl4-induced liver fibrosis; assay type: in vivo; conditions: mean ± SD
Description: as §1, §2
According to the corresponding manufacturer’s protocols, plasma samples were prepared after finishing animal experiments and determined using ALT and AST diagnostic kits. The ALT and AST enzyme activities were measured by the third affiliated hospital of Beijing University of Chinese Medicine (Beijing, China).

[4] = Acute toxicity assay via gavage; conditions: male, Kunming, mouse, in vivo; mice, gavage (oral administration), doses up to 2000 mg/kg
Description: (§3) According to previous studies, Oxy-Di-OA was further investigated for its approximate LD50 and 95% confidence interval (CIs) value in mice. Male Kunming mice, weighing 20 ± 2 g were randomly divided into eleven groups of six individuals matched by weight and size. The mice had fasted for 12 h, but water was allowed ad libitum before the acute toxicity experiments.
One group of mice was orally administered bean oil as a normal control. Then the other four groups of mice were given gavage of Oxy-Di-OA in doses of 200, 500, 1000, and 2000 mg/kg, respectively. The mice were observed continuously for 1 h after such treatment and then intermittently for 4 h, and thereafter over a period of 24 h. The mice were further observed for up to seven days following treatment for any signs of toxicity, death, and the latency of death. Abnormal symptoms were recorded immediately.
The acute toxicity test via gavage was evaluated by LD50.

[5] = Pharmacokinetic study after single-dose oral administration (HPLC-UV); assay type: in vivo, SD rats; conditions: rats
Description: The LC system is made up of an Agilent 1100 HPLC system (Agilent Corporation, USA) coupled with a reverse-phase Agilent TC-C18 analytical column (4.6 mm × 250 mm, 5 µm particle size). The column temperature set at 25 °C. The column used during the pharmacokinetic assay was eluted at a flow rate of 1 mL/min, and the solvent consisted of 98% methanol and 2% aqueous solution. The detection wavelength was 278 nm and the injection volume was 10 μL. Healthy SD rats had no access to food until 12 h after dose administration, while water was free to access throughout the experiments. To determine the drug concentrations and to calculate the pharmacokinetic parameters, blood was obtained from the ophthalmic vein and collected with heparinized microcentrifuge tubes. The plasma was separated by centrifuging the blood samples at 4000 rpm for 15 min. Plasma stored in a freezer at −20 °C was thawed at 4 °C before treatment. After that, 15 μL of IS (50.4 μg/mL) working solution was added to such a plasma sample (200 μL), followed by vortex-mixing for 1 min to obtain the mixture. Then we added 600 μL acetonitrile to the mixture and vortexed for 5 min. After that, the mixture was centrifuged at 12,000 rpm for 5 min at 4 °C. […] The residue was then reconstituted in 100 μL methanol, and stirred and vortexed for 1 min. The solution was centrifuged at 12,000 rpm for 5 min to obtain the supernatant. Finally, 10 μL of supernatant was injected into the HPLC system for further analysis. Oxy-Di-OA was dissolved in normal saline before using. Before administration of drug, six SD rats had no access to food overnight but water was allowed free access. A single dose (500 mg/kg) of Oxy-Di-OA solution was administered orally to rats. After that, the blood samples were collected with heparinized microcentrifuge tubes at 1, 2, 6, 8, 10, 12, 14, 16 and 20 h. Plasma was separated by centrifugation (4000 rpm, 10 min, and 15 °C) and kept at −20 °C until necessary.

HBV (Hepatitis B Virus) = system: HBV (Hepatitis B Virus); set-up: method as in PMID 27023498; conditions: previous studies; cited from earlier work
mice = test: Acute toxicity assay via intraperitoneal injection; assay type: in vivo, Kunming mice
Description: as §3
(§4) The maximum suspended dose (900 mg/kg) of Oxy-Di-OA was prepared in bean oil solution. One group of mice was injected intraperitoneally with bean oil as a normal control. Then the other five groups of mice were given intraperitoneal injections of Oxy-Di-OA in doses of 178, 422, 600, 750, and 900 mg/kg, respectively. The mice were observed continuously for 1 h after such treatment and then intermittently for 4 h, and thereafter over a period of 24 h. The mice were further observed for up to seven days following treatment for any situations of poisoning and deaths and the latency of death. Some abnormal behaviors were recorded.
(§5) The acute toxicity assay via intraperitoneal injection was evaluated by LD50 and 95% CIs which were calculated by Käber assessment.

[6] = Acute toxicity assay via intraperitoneal injection; assay type: in vivo, Kunming mice; conditions: male, Kunming, mouse, in vivo, ip, mice, Käber assessment
Description: as §3, §4, §5

[7] = Stability of Oxy-Di-OA in rat plasma and processed samples; assay type: physicochemical
Description: The stability of Oxy-Di-OA was investigated by analyzing the QC samples over three levels under different conditions, including −20 °C for 10 and 20 days (long-term stability), and room temperature for one day (short-term stability). In addition, the concentration of Oxy-Di-OA would be detected in the above samples to compare with the initial value in order to determine whether it has changed or not.

[8] = bifendate 10.5 mg/kg once per day
[9] = SD, rat, plasma, single oral dose 500 mg/kg, n = 6
[10] = single oral dose 500 mg/kg, n = 6
[11] = high-dose group 28 mg/kg once per day
[12] = low-dose group 14 mg/kg once per day
[13] = dose 28 mg/kg (high dose), 28 mg/kg

Structure (SMILES): COC(=O)c1cc(OC)c2c(c1-c1c(C(=O)OC)cc(OC)c3c1OCO3)OCO2 [Bifendate, bifendate, reference compound]
- expression of TGF-β1 (immunohistochemical staining) (TGF-β1; [8]): a low expression of TGF-β1
- Liver Index ([1]; dose 10.5 mg/kg): 3.57 ± 0.34 %
- Spleen Index ([1]; dose 10.5 mg/kg): 0.24 ± 0.04 %
- histological examination of rat livers (H&E) [2, 8]: notable alleviation in abnormal areas
- ALT ([3]; dose 10.5 mg/kg): 54.54 ± 21.40 U/L
- AST ([3]; dose 10.5 mg/kg): 122.56 ± 39.18 U/L

Structure (SMILES): CC1(C)CCC2(C(=O)O)CC[C@]3(C)C(=CC=C4[C@@]5(C)CCC(=O)C(C)(C)[C@@H]5CC[C@]43C)C2C1 (stereo partly shown) [Oxy-Di-OA, 3-oxours-oleana-9(11), 12-dien-28-oic acid]
- LD50 at 7 days [4]: > 2000 mg/kg
- AUC(0-t) ([5]; SD, rat, plasma, po, 500 mg/kg, single oral dose 500 mg/kg, n = 6, read-out: AUClast (area under the concentration-time curve from t = 0 to the last time)): 88020 ± 660 ng·h/mL
- Cmax [5, 9]: 8180 ± 660 ng/mL
- MRT [5, 9]: 9.48 ± 0.48 h
- Tmax ([5]; SD, rat, plasma, single oral dose 500 mg/kg, n = 6, read-out: Tmax (time to reach peak concentration)): 10 ± 2.19 h
- half-life ([5]; SD, rat, plasma, single oral dose 500 mg/kg, n = 6, read-out: t1/2 (elimination half-life) (converted)): 2.19 ± 0.71 h
- CL [5, 10]: 92.9307 ± 16.544 mL/min/kg
- Vz [5, 10]: 18,290.17 ± 9453.59 mL/kg
- AUClast (area under the concentration-time curve from t = 0 to the last time) ([5]; single oral dose 500 mg/kg, n = 6, 500 mg/kg): 90210 ± 15680 ng·h/mL
- elimination half-life compared with oleanolic acid ([5]; oleanolic acid data ref 27): longer elimination half-life than its parent compound, oleanolic acid
- anti-HBV activity IC50 (HBV (Hepatitis B Virus)): 3.13 µg/mL
- inhibition of the rebound of the viral replication rate, compared with lamivudine (HBV (Hepatitis B Virus)): superior to the positive drug (Lamivudine)
- inhibition rate of the secretion of HBsAg (HBV (Hepatitis B Virus)): 90.52% ± 1.78%
- reduction rate of the secretion of HBeAg (HBV (Hepatitis B Virus)): 42.31% ± 3.53%
- dose harmless for further in vivo study (mice): 600 mg/kg
- Death Rate (mice; 178 mg/kg): 0%
- Death Rate (mice; 422 mg/kg): 0%
- Death Rate (mice; 600 mg/kg): 0%
- Death Rate (mice; 750 mg/kg): 67%
- Death Rate (mice; 900 mg/kg): 83%
- symptoms observed (mice; high dose, one hour after the experiment): slow movement and a decrease in aggressiveness
- LD50 at 7 days ([6]; read-out: 95% CIs of LD50): 640 to 799 mg/kg
- LD50 at 7 days ([6]; read-out: LD50): 715 mg/kg
- expression of TGF-β1 (immunohistochemical staining) (TGF-β1; [11]): a lower expression of TGF-β1 compared to model group
- expression of TGF-β1 (immunohistochemical staining) (TGF-β1; [12]): a lower expression of TGF-β1 compared to model group
- Liver Index ([1]; dose 14 mg/kg): 3.46 ± 0.38 %
- Spleen Index ([1]; dose 14 mg/kg): 0.24 ± 0.06 %
- Liver Index [1, 13]: 3.15% ± 0.36% and 3.15 ± 0.36 *^,# %
- Spleen Index [1, 13]: 0.26% ± 0.05% and 0.26 ± 0.05 %
- histological examination of rat livers (H&E) [2, 11]: marked regression and alleviation in the abnormal areas
- histological examination of rat livers (H&E) [2, 12]: moderate regression of morphological changes
- ALT ([3]; dose 14 mg/kg): 77.58 ± 39.58 U/L
- AST ([3]; dose 14 mg/kg): 122.00 ± 52.19 U/L
- ALT ([3]; dose 28 mg/kg): 67.06 ± 51.59 U/L
- AST ([3]; dose 28 mg/kg): 141.89 ± 71.57 U/L
- stability in plasma biomatrix and processed samples ([7]; freezing and thawing cycles, room temperature 24 h): stable
- concentration relative to the initial concentration ([7]; methanol solutions, room temperature for 24 h): 97.46% to 100.17%
